Test results: US12590083B2, “Inhibitors of spinster homolog 2 (SPNS2) for use in therapy” (University of Virginia Patent Foundation, priority 2019, dated 2026)
Counter-ions that a name gives are not always drawn.

Target: T1, human SPNS2 (Homo sapiens, UniProt Q8IVW8)
T1 construct: expressed in transfected cells; host or cells: Saccharomyces cerevisiae strain with forced expression of a mammalian SphK and human SPNS2
T1 sequence (Q8IVW8 1-549): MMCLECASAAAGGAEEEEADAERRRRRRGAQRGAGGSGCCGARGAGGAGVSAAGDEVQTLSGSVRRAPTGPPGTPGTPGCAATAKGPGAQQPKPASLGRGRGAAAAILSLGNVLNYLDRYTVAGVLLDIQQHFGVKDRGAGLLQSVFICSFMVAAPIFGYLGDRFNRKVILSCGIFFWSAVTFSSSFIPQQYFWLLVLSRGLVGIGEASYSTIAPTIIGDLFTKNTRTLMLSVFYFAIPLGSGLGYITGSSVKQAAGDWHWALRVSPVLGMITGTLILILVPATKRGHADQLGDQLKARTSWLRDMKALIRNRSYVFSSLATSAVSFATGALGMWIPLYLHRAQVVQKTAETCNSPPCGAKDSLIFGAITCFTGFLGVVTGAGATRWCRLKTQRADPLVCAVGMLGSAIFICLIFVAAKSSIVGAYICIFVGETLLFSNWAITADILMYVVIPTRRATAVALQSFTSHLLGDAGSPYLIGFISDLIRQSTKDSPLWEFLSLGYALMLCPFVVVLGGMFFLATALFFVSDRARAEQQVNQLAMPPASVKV
Test: S1P transporter assay: growth of S. cerevisiae strain with forced expression of a mammalian SphK and human SPNS2
Assay type: cell-based
Conditions: in vitro inhibition of SPNS2; growth of S. cerevisiae strain expressing mammalian SphK and human SPNS2; compounds as their pharmaceutical salts
From the text: Transporter assays are vectorial and, therefore, require measurement of the transported analyte in different compartments. The assay of S1P transporters is problematic because S1P is exported, but not imported, by SPNS2, which obviates measuring uptake of mass- or radio-labeled S1P into transporter-expressing cells.
To assay for SPNS2 inhibitor hits, we took advantage of the growth inhibitory effects of excessive levels of phosphorylated Long Chain Base (phospho-LCB) levels on the budding yeast, S. cerevisiae (Kharel Y, et al. Saccharomyces cerevisiae as a platform for assessing sphingolipid lipid kinase inhibitors. PLoS One 13, e0192179 (2018) PMC5908134). Yeast lack the desaturase that converts dihydroceramide to ceramide and, therefore, have neither sphingosine nor S1P. Rather, yeast have the reduced form, dihydrosphingosine, and the 4-hydroxyl analog, phytosphingosine and their respective phosphates. Like all eukaryotes, the yeast synthesizes (via LCB kinases (SphKs)) and degrades (via phospho-LCB lyase and phosphatase) phospho-LCBs, (dhS1P, phytoS1P). Yeast lack phospho-LCB transporters such as SPNS2, which are found only in vertebrates. To assess inhibition of SPNS2 in vitro, we used a strain of S. cerevisiae wherein expression of a mammalian SphK and human SPNS2 were forced. SPNS2 inhibitors decrease the growth of this strain. Table 2 below presents in vitro inhibition data against SPNS2 for exemplary compounds, presented here as their pharmaceutical salts, of the disclosure (A≤2 μM, B>2 μM).

Compound | IC50
CCCCCO/N=C(\C)c1ccc(-c2noc([C@@H]3CCN(C(=N)N)C3)n2)cc1 [Compound 40l, (R)-3-(3-(4-(1-((pentyloxy)imino)ethyl)phenyl)-1,2,4-oxadiazol-5-yl)pyrrolidine-1-carboximidamide hydrochloride] | > 2 µM
C/C(=N\OCc1ccccc1)c1ccc(-c2noc([C@@H]3CCN(C(=N)N)C3)n2)cc1 [Compound 40g, (R)-3-(3-(4-(1-((benzyloxy)imino)ethyl)phenyl)-1,2,4-oxadiazol-5-yl)pyrrolidine-1-carboximidamide hydrochloride] | > 2 µM
CCCCCCCCOc1ccc(-c2noc([C@@H]3CCCNC3)n2)cc1C(F)(F)F [Compound 21d, (R)-3-(4-(octyloxy)-3-(trifluoromethyl)phenyl)-5-(piperidin-3-yl)-1,2,4-oxadiazole hydrochloride] | > 2 µM
N=C(N)N1CC[C@@H](c2nc(-c3ccc(N4CCCCC4)nc3)no2)C1 [Compound 15a, (R)-3-(3-(6-(piperidin-1-yl)pyridin-3-yl)-1,2,4-oxadiazol-5-yl)pyrrolidine-1-carboximidamide hydrochloride] | > 2 µM
C/C(=N\OCc1ccc(C(F)(F)F)cc1)c1ccc(-c2noc([C@@H]3CCNC3)n2)cc1 [Compound 38c, (R)-1-(4-(5-(pyrrolidin-3-yl)-1,2,4-oxadiazol-3-yl)phenyl)ethan-1-one O-(4-(trifluoromethyl)benzyl) oxime hydrochloride] | > 2 µM
C/C(=N\OCc1ccc(Br)cc1)c1ccc(-c2noc([C@@H]3CCN(C(=N)N)C3)n2)cc1 [Compound 40n, (R)-3-(3-(4-(1-(((4-bromobenzyl)oxy)imino)ethyl)phenyl)-1,2,4-oxadiazol-5-yl)pyrrolidine-1-carboximidamide hydrochloride] | > 2 µM
CCCCCCCCCCCc1ccc(-c2noc(C3CN(C(=N)N)C3)n2)cc1 [Compound 7a, 3-(3-(4-undecylphenyl)-1,2,4-oxadiazol-5-yl)azetidine-1-carboximidamide hydrochloride] | > 2 µM
CCCCCCCOc1ccc(-c2noc([C@@H]3CCCN(C(=N)N)C3)n2)cc1C(F)(F)F [Compound 23c, (R)-3-(3-(4-(heptyloxy)-3-(trifluoromethyl)phenyl)-1,2,4-oxadiazol-5-yl)piperidine-1-carboximidamide hydrochloride] | ≤ 2 µM
C/C(=N\OCc1ccc(-c2ccccc2)cc1)c1ccc(-c2noc([C@@H]3CCN(C(=N)N)C3)n2)cc1 [Compound 40d, (R)-3-(3-(4-(1-(([1,1′-biphenyl]-4-ylmethoxy)imino)ethyl)phenyl)-1,2,4-oxadiazol-5-yl)pyrrolidine-1-carboximidamide hydrochloride] | ≤ 2 µM
c1cc(N2CCCCC2)ncc1-c1noc([C@@H]2CCNC2)n1 [Compound 13a, (R)-3-(6-(piperidin-1-yl)pyridin-3-yl)-5-(pyrrolidin-3-yl)-1,2,4-oxadiazole hydrochloride] | > 2 µM
c1cc(N2CCOCC2)ncc1-c1noc([C@@H]2CCNC2)n1 [Compound 13d, (R)-4-(5-(5-(pyrrolidin-3-yl)-1,2,4-oxadiazol-3-yl)pyridin-2-yl)morpholine hydrochloride] | > 2 µM
CCCCCCCCCCc1ccc(-c2noc(C[C@@H]3CCN(C(=N)N)C3)n2)cc1 [Compound 7p, (S)-3-((3-(4-decylphenyl)-1,2,4-oxadiazol-5-yl)methyl)pyrrolidine-1-carboximidamide 2,2,2-trifluoroacetate] | ≤ 2 µM
CCCCCCCCCCCc1ccc(-c2noc(C3CN(C(=N)N)C3)n2)cc1C(F)(F)F [Compound 30c, 3-(3-(3-(trifluoromethyl)-4-undecylphenyl)-1,2,4-oxadiazol-5-yl)azetidine-1-carboximidamide hydrochloride] | > 2 µM
CCCCCCCCCCc1ccc(-c2noc([C@H]3CCNC3)n2)cc1 [Compound 5e, (S)-3-(3-(4-decylphenyl)-1,2,4-oxadiazol-5-yl)pyrrolidin-1-ium 2,2,2-trifluoroacetate] | > 2 µM
CCCCCCCCCCCc1ccc(-c2noc([C@@H]3CCN(C(=N)N)C3)n2)cc1 [Compound 7xa, (R)-3-(3-(4-undecylphenyl)-1,2,4-oxadiazol-5-yl)pyrrolidine-1-carboximidamide hydrochloride] | ≤ 2 µM
CCCCCCCCCCc1ccc(-c2noc(C[C@@H]3CCNC3)n2)cc1C(F)(F)F [Compound 28g, (S)-3-(4-decyl-3-(trifluoromethyl)phenyl)-5-(pyrrolidin-3-ylmethyl)-1,2,4-oxadiazole hydrochloride] | > 2 µM
CCCCc1ccc(Nc2ccc(-c3noc([C@@H]4CCNC4)n3)cn2)cc1 [Compound 13i, (R)—N-(4-butylphenyl)-5-(5-(pyrrolidin-3-yl)-1,2,4-oxadiazol-3-yl)pyridin-2-amine hydrochloride] | > 2 µM
N=C(N)N1CCC[C@@H](c2nc(-c3ccc(OCc4ccc(C(F)(F)F)cc4)c(C(F)(F)F)c3)no2)C1 [Compound 23h, (R)-3-(3-(3-(trifluoromethyl)-4-((4-(trifluoromethyl)benzyl)oxy)phenyl)-1,2,4-oxadiazol-5-yl)piperidine-1-carboximidamide hydrochloride] | > 2 µM
C/C(=N\OCc1ccc2c(c1)C(C)(C)CCC2(C)C)c1ccc(-c2noc([C@@H]3CCN(C(=N)N)C3)n2)cc1 [Compound 40h, (R)-3-(3-(4-(1-(((5,5,8,8-tetramethyl-5,6,7,8-tetrahydronaphthalen-2-yl)methoxy)imino)ethyl)phenyl)-1,2,4-oxadiazol-5-yl)pyrrolidine-1-carboximidamide hydrochloride] | ≤ 2 µM
N=C(N)N1CCC[C@@H](c2nc(-c3ccc(OCCCc4ccccc4)c(C(F)(F)F)c3)no2)C1 [Compound 23j, (R)-3-(3-(4-(3-phenylpropoxy)-3-(trifluoromethyl)phenyl)-1,2,4-oxadiazol-5-yl)piperidine-1-carboximidamide hydrochloride] | > 2 µM
CCCCCCCO/N=C(\C)c1ccc(-c2noc([C@@H]3CCN(C(=N)N)C3)n2)cc1 [Compound 40i, (R)-3-(3-(4-(1-((heptyloxy)imino)ethyl)phenyl)-1,2,4-oxadiazol-5-yl)pyrrolidine-1-carboximidamide hydrochloride] | ≤ 2 µM
CCCCCCCCCCc1ccc(-c2noc([C@H]3CCCNC3)n2)cc1 [Compound 5f, (S)-3-(3-(4-decylphenyl)-1,2,4-oxadiazol-5-yl)piperidin-1-ium 2,2,2-trifluoroacetate] | > 2 µM
CCCCCCCCCCc1ccc(-c2noc(CC3CNC3)n2)cc1 [Compound 5j, 5-(azetidin-3-ylmethyl)-3-(4-decylphenyl)-1,2,4-oxadiazole 2,2,2-trifluoroacetate] | ≤ 2 µM
CCCCCCCCCCCc1ccc(-c2noc(C3CNC3)n2)cc1 [Compound 5a, 5-(azetidin-3-yl)-3-(4-undecylphenyl)-1,2,4-oxadiazole 2,2,2-trifluoroacetate] | > 2 µM
C/C(=N\OCc1ccc2c(c1)C(C)(C)CCC2(C)C)c1ccc(-c2noc([C@@H]3CCNC3)n2)cc1 [Compound 38h, (R)-1-(4-(5-(pyrrolidin-3-yl)-1,2,4-oxadiazol-3-yl)phenyl)ethan-1-one O-((5,5,8,8-tetramethyl-5,6,7,8-tetrahydronaphthalen-2-yl)methyl) oxime hydrochloride] | > 2 µM
C/C(=N\OCc1cc(C(F)(F)F)cc(C(F)(F)F)c1)c1ccc(-c2noc([C@@H]3CCN(C(=N)N)C3)n2)cc1 [Compound 40b, (R)-3-(3-(4-(1-(((3,5-bis(trifluoromethyl)benzyl)oxy)imino)ethyl)phenyl)-1,2,4-oxadiazol-5-yl)pyrrolidine-1-carboximidamide hydrochloride] | ≤ 2 µM
CCCCCCCCCCc1ccc(Nc2ccc(-c3noc([C@@H]4CCN(C(=N)N)C4)n3)cn2)cc1 [Compound 15h, (R)-3-(3-(6-((4-decylphenyl)amino)pyridin-3-yl)-1,2,4-oxadiazol-5-yl)pyrrolidine-1-carboximidamide hydrochloride] | ≤ 2 µM
CCCCCCCOc1ccc2cc(-c3noc([C@@H]4CCNC4)n3)ccc2c1 [Compound 5aa, (R)-3-(6-(heptyloxy)naphthalen-2-yl)-5-(pyrrolidin-3-yl)-1,2,4-oxadiazole hydrochloride] | ≤ 2 µM
